Reference: ChEMBL document CHEMBL4251748, “Discovery of Cytochrome P450 4F11 Activated Inhibitors of Stearoyl Coenzyme A Desaturase” (J Med Chem, 2018)

Key:
[1] = Half life in mouse liver S9 fraction by LC-MS/MS analysis; type: ADME, subcellular
NCI-H1155 [2] = assay: Cytotoxicity against human NCI-H1155 cells expressing CYP4F11 incubated for 4 days in presence of sodium oleate; type: functional, cell-based; conditions: NCI-H1155, 96 h
NCI-H1155 [3] = assay: Cytotoxicity against human NCI-H1155 cells expressing CYP4F11 incubated for 4 days; type: functional, cell-based; conditions: NCI-H1155, 96 h
NCI-H2122 [4] = assay: Cytotoxicity against human NCI-H2122 cells incubated for 4 days; type: functional, cell-based; conditions: NCI-H2122, 96 h
NCI-H1155 [5] = assay: Cytotoxicity against human NCI-H1155 cells expressing pLVX empty vector incubated for 4 days; type: functional, cell-based; conditions: NCI-H1155, 96 h
[6] = molecular target: T1, Acyl-CoA desaturase 1 (Mus musculus) (UniProt P13516); assay: Inhibition of SCD1 in CD1 mouse liver at 3 uM using stearoyl [9,10-3H] CoA as substrate and NADPH incubated for 2 hrs by scintillation counting method
T1 sequence (whole entry): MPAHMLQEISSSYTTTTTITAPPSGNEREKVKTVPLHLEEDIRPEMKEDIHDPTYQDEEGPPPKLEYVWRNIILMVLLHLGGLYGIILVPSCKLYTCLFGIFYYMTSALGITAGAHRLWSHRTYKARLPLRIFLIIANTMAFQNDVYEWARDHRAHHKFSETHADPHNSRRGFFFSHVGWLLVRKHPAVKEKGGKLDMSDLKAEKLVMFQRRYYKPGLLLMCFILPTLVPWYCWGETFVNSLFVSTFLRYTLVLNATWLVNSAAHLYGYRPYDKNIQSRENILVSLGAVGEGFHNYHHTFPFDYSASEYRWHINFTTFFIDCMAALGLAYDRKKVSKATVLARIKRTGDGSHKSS

NCI-H1155 [7] = assay: Cytotoxicity against human NCI-H1155 cells incubated for 4 days in presence of sodium oleate; type: functional, cell-based; conditions: NCI-H1155, 96 h
[8] = molecular target: T1, Acyl-CoA desaturase 1 (Mus musculus); assay: Inhibition of SCD1 in CD1 mouse liver at 100 nM using stearoyl [9,10-3H] CoA as substrate and NADPH incubated for 2 hrs by scintillation counting method
[9] = Half life in human NCI-H1155 cells at 500 nM by LC-MS/MS analysis; type: ADME, cell-based
CYP4F11 = molecular target: T2, CYP4F11 (Homo sapiens, UniProt Q9HBI6); assay: Drug metabolism in human NCI-H1155 cells assessed as CYP4F11-meidated O-demethylation by measuring half life at 500 nM by LC-MS/MS analysis; type: ADME, cell-based
T2 sequence (Q9HBI6 whole entry): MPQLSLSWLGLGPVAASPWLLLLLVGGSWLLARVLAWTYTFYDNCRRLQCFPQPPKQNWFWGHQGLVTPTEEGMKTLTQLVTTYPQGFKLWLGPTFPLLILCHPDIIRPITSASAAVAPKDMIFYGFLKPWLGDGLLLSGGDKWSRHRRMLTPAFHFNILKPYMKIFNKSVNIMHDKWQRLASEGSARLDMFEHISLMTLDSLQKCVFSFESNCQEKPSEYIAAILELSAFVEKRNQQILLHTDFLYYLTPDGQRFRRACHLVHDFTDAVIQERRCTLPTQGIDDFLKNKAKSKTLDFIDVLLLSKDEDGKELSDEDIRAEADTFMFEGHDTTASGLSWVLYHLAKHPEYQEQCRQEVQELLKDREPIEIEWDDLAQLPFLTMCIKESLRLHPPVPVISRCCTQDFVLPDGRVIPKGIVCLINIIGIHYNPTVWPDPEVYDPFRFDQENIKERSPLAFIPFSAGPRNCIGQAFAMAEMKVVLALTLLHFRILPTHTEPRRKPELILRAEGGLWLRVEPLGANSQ

[10] = Drug level in human NCI-H1155 cells after 4 hrs by LC-MS/MS analysis; type: ADME, cell-based; conditions: nci-h1155, 4 h
NCI-H1155 [11] = assay: Ratio of EC50 for cytotoxicity against human NCI-H1155 cells expressing CYP4F11 incubated for 4 days in presence of sodium oleate to EC50 for cytotoxicity against human NCI-H1155 cells expressing CYP4F11 incubated for 4 days in absence of sodium oleate; type: functional
[12] = Cytotoxicity against human NCI-H2073 cells; type: functional, cell-based
NCI-H1395 = assay: Cytotoxicity against human NCI-H1395 cells; type: functional, cell-based
NCI-H2122 [13] = assay: Cytotoxicity against human NCI-H2122 cells at > 50 uM relative to control; type: functional
NCI-H1155 [14] = assay: Cytotoxicity against human NCI-H1155 cells; type: functional, cell-based
[15] = Cytotoxicity against human NCI-H1819 cells; type: functional, cell-based
HCC95 [16] = assay: Cytotoxicity against human HCC95 cells at > 50 uM relative to control; type: functional
[17] = Cytotoxicity against human HCC366 cells; type: functional, cell-based
NCI-H2122 [18] = assay: Cytotoxicity against human NCI-H2122 cells; type: functional, cell-based
HCC44 [19] = assay: Cytotoxicity against human HCC44 cells at > 50 uM relative to control; type: functional
HCC4017 = assay: Cytotoxicity against human HCC4017 cells; type: functional, cell-based
HCC44 [20] = assay: Cytotoxicity against human HCC44 cells; type: functional, cell-based
NCI-H460 [21] = assay: Cytotoxicity against human NCI-H460 cells at > 50 uM relative to control; type: functional
NCI-H2009 = assay: Cytotoxicity against human NCI-H2009 cells; type: functional, cell-based
NCI-H460 [22] = assay: Cytotoxicity against human NCI-H460 cells; type: functional, cell-based
NCI-H1993 = assay: Cytotoxicity against human NCI-H1993 cells; type: functional, cell-based
HCC95 [23] = assay: Cytotoxicity against human HCC95 cells; type: functional, cell-based

SMILES | inhibition [8] | EC50 (NCI-H1155 [2]) | EC50 (NCI-H1155 [3]) | EC50 (NCI-H2122 [4]) | EC50 (NCI-H1155 [5]) | EC50 (NCI-H1155 [7]) | also measured
C#CCOc1ccc(C(=O)c2ccc(NC(=O)C(=O)NCCc3ccc(O)cc3)cc2)cc1 |  | > 50 µM | 0.21 µM | 0.058 µM | 0.008 µM | > 50 µM | half-life [1]: 0.217 h; inhibition [6]: > 98%
COc1ccc(C(C)CNC(=O)C(=O)Nc2ccc(Cl)cc2)cc1 (stereo not given) |  | > 50 µM | > 50 µM | 3.66 µM | > 50 µM | > 50 µM | 
COc1ccc(CC(C)NC(=O)C(=O)Nc2ccc(Cl)cc2)cc1 (stereo not given) |  | 7.6 µM | 16.4 µM | 3.53 µM | 9.5 µM | 12 µM | 
COc1ccc(CCNC(=O)C(=O)NC2CC2)cc1 |  | > 50 µM | > 50 µM | > 50 µM | > 50 µM | > 50 µM | half-life at 0.5 µM [9]: > 48 h; half-life at 0.5 µM (CYP4F11): 4.7 h; Drug uptake [10]: 80 nM
O=C(NCCc1ccc(O)cc1)C(=O)Nc1ccc(Cl)cc1 |  | 21 µM | 0.37 µM | 0.26 µM | 0.39 µM | 37 µM | half-life [1]: 1.18 h
COc1ccc(CCNC(=O)NC(=O)c2ccc(COc3ccccc3)cc2)cc1 |  | 3.6 µM | 0.034 µM | 0.01 µM | > 50 µM | > 50 µM | half-life [1]: 2.63 h; half-life at 0.5 µM [9]: > 48 h; Ratio EC50 (NCI-H1155 [11]): 100; half-life at 0.5 µM (CYP4F11): 7.5 h; Drug uptake [10]: 1670 nM
COc1ccc(CCNC(=O)c2ccc3ccccc3n2)cc1 |  | > 50 µM | > 50 µM | > 50 µM | > 50 µM | > 50 µM | 
C#CCOc1ccc(C(=O)c2ccc(NC(=O)C(=O)NCCc3ccc(OC)cc3)cc2)cc1 |  | > 50 µM | 0.12 µM | 0.028 µM | 8.5 µM | 16 µM | half-life at 0.5 µM [9]: > 48 h; half-life at 0.5 µM (CYP4F11): 28 h; Drug uptake [10]: 870 nM
COc1ccc(CCNC(=O)C(=O)Nc2ccc(Cl)cc2)cc1 |  | > 50 µM | 0.67 µM | 0.22 µM | 36 µM | > 50 µM | EC50 [12]: > 10 µM; half-life [1]: 0.117 h; EC50 (NCI-H1395): > 10 µM; Activity (NCI-H2122 [13]): >95%; EC50 (NCI-H1155 [14]): > 10 µM; EC50 [15]: > 10 µM; Activity (HCC95 [16]): >95%; EC50 [17]: > 10 µM; EC50 (NCI-H2122 [18]): < 1 µM; Activity (HCC44 [19]): >95%; EC50 (HCC4017): > 10 µM; EC50 (HCC44 [20]): < 1 µM; Activity (NCI-H460 [21]): >95%; EC50 (NCI-H2009): > 10 µM; EC50 (NCI-H460 [22]): < 1 µM; EC50 (NCI-H1993): > 10 µM; EC50 (HCC95 [23]): < 1 µM
COc1ccc(CNC(=O)C(=O)Nc2ccc(Cl)cc2)cc1 |  |  |  |  |  |  | half-life at 0.5 µM [9]: > 48 h; Drug uptake [10]: 340 nM
COc1ccc(CCN(C)C(=O)NC(=O)c2ccc(C(=O)c3ccccc3)cc2)cc1 |  |  |  | 8.7 µM |  |  | 
COc1ccc(CCNC(=O)C(=O)Nc2ccc(C)c(OC)c2)cc1 |  |  |  | > 50 µM |  |  | 
COc1ccc(CCN(C)C(=O)C(=O)Nc2ccc(Cl)cc2)cc1 |  |  |  | 10.5 µM |  |  | 
COc1ccc(CCNC(=O)c2nc3ccccc3c(=O)[nH]2)cc1 |  |  |  | > 50 µM |  |  | 

The next lines start with results.

inhibition [8] | SMILES | EC50 (NCI-H1155 [2]) | EC50 (NCI-H1155 [3]) | EC50 (NCI-H2122 [4]) | EC50 (NCI-H1155 [5]) | EC50 (NCI-H1155 [7]) | also measured
0% | O=C(NCCc1ccc(O)cc1)C(=O)NC1CC1 | > 50 µM | > 50 µM | > 50 µM | > 50 µM | > 50 µM | 
24% | CC(Cc1ccc(O)cc1)NC(=O)C(=O)Nc1ccc(Cl)cc1 (stereo not given) | 13 µM | 11.2 µM | 5.1 µM | 11.7 µM | 10 µM | 
96% | O=C(NCCc1ccc(O)cc1)NC(=O)c1ccc(COc2ccccc2)cc1 | 6.4 µM | 0.051 µM | 0.011 µM | 0.007 µM | 12 µM | half-life [1]: > 4 h
57% | Cc1ccccc1C(=O)c1ccc(C(=O)NC(=O)NCCc2ccc(O)cc2)cc1 |  |  | 1.5 µM |  |  | 
31% | O=C(NCCc1ccc(O)cc1)c1ccc2ccccc2n1 | 35 µM | 17 µM | > 50 µM | 18 µM | 46 µM | 
28% | CC(CNC(=O)C(=O)Nc1ccc(Cl)cc1)c1ccc(O)cc1 (stereo not given) | > 50 µM | > 50 µM | 4 µM | > 50 µM | > 50 µM | 
